# Source: PubChem BioAssay (NCI)
# “And” between values parts separate entries of the source, which are not always exact repeats. Equal values may be shown once.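 Cultured in 96-well plates, cells were exposed to test compound for 48 hours across five concentrations. Abbreviation: GI50, concentration required for 50% inhibition of growth. TGI denotes the concentration required for complete inhibition of growth.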
# Test system: OVCAR-5 ovarian
# Experiment: growth of human tumour cells (NCI), 48 h
Compound,GI50,TGI
Cn1nc(N)c2cc([C@@H]3Nc4ccc5[nH]ncc5c4[C@H]4C5CCC(C5)[C@@H]34)ccc21 (some centres undefined),1.48 µM,23.4 µM
Cn1cc(CO)c2c1C(=O)C=C(N1CC1)C2=O,0.0365 µM,4.79 µM
O=C(O)C1C2C=CC(O2)C1C(=O)NCc1ccccn1 (centres undefined),–,> 100 µM
CC1=C(C(=O)Nc2ccccc2)C(c2ccccc2)C(C(=O)Nc2ccccc2)=C(C)N1,–,> 100 µM
O=C(OC(CNc1cc(=O)n(Cc2ccccc2)c(=O)n1Cc1ccccc1)CN1CCCC1)c1ccccc1 (centres undefined),> 100 µM,> 100 µM
Cc1nn(-c2ccccc2)c2nc(N3CCOCC3)nnc12,–,> 100 µM
CCN(CC)CCCC(CNc1ccnc2cc(Cl)ccc12)c1ccc(Cl)cc1 (centres undefined),2.53 µM and 2.16 µM,8.25 µM and 6.25 µM
CCOC(=O)CCCn1c(SC)nc2[nH]cc(-c3ccccc3)c2c1=O,37.5 µM,97.1 µM
CNC(=O)N(C)N=NCCCl,–,> 100 µM
CCOc1ccccc1C=C1c2ccccc2C(=O)c2ccccc21,–,> 100 µM
O=C(CCn1[nH]c(=O)c(Cl)c(Cl)c1=O)NO,–,> 100 µM
CCN1CCN(C(c2ccc(C(F)(F)F)cc2)c2ccc3cccnc3c2O)CC1 (centres undefined),2.61 µM,14.6 µM
CC(C)=CC/C=C(/C)[C@H]1CC[C@]2(C)[C@@H]1CC[C@@H]1[C@@]3(C)CCCNC(C)(C)[C@@H]3CC[C@]12C,3.86 µM,15.1 µM
COc1ccc(C(C)=O)cc1N1C(=O)C2C(C1=O)C1(c3ccccc3)C(=O)C2(c2ccccc2)C(c2ccc(C)cc2)=C1c1ccc(C)cc1 (centres undefined),> 100 µM,> 100 µM
CN(C)c1nc2ccccc2[nH]1,–,> 100 µM
NNC(=S)N/N=C(\CC1OC(=O)c2ccccc21)c1ccccc1O (centres undefined),–,33.9 µM

Compound,GI50,TGI
COC(=O)C1=C(O)c2cc(OC)c(OC)cc2C(c2ccc(OC)c(OC)c2)C1 (centres undefined),–,> 100 µM
COC1(OC)CC2C(=O)N(Cc3ccccc3)C1C(S(=O)(=O)c1ccccc1)C2S(=O)(=O)c1ccccc1 (centres undefined),–,34.1 µM
NC(=Nc1c([N+](=O)[O-])cnc2ccccc12)N1CCOCC1,–,> 100 µM
CCN(CC)c1ccc2c(c1)OC(N)=C(C#N)C2c1cc(OC)c2c(c1)OCO2 (centres undefined),0.0639 µM,30.1 µM
N#CC(=C1C=CC(=NO)C=C1)c1ccccc1,2.53 µM,5.03 µM
CCCCCCCCCCCCCC1=NC(C)(C)CN1C(C)C,1.68 µM,3.05 µM
COC(=O)C(=Cc1cc(OC)ccc1OC)C(=O)OC,–,61.5 µM
CC(C)c1ccccc1NC(=O)CCc1n[nH]c(=S)o1,–,> 100 µM
CC(C)=CCNc1ncnc2c1ncn2C1OC(CO)C(O)C1O (centres undefined),13.3 µM,> 1000 µM
CCCCC(C(=O)C(=O)NC1C2CC3CC(C2)CC1C3)C(=O)C(C)C (centres undefined),–,> 100 µM
COc1ccc(CN2C(=O)/C(=C\C(=O)c3ccc(OCCN4CCCCC4)cc3)c3ccccc32)cc1,1.88 µM,5.94 µM
COC(=O)c1cc2c(s1)C(=O)c1ccccc1-2,–,> 100 µM
CCC(C)n1ncn(-c2ccc(N3CCN(c4ccc(OCC5COC(Cn6cncn6)(c6ccc(Cl)cc6Cl)O5)cc4)CC3)cc2)c1=O (centres undefined),56.3 µM,> 100 µM
CC(C)CCN1c2nc(Nc3cc(F)c(O)c(F)c3)ncc2N(C)C(=O)C1C (centres undefined),19.1 µM,> 100 µM
NC(=O)NC1C(c2ccccc2)=C1c1ccccc1,–,64.4 µM

# Test system: COLO 205 colon
# Experiment: growth of human tumour cells (NCI), 48 h
Compound,GI50,TGI
Cn1nc(N)c2cc([C@@H]3Nc4ccc5[nH]ncc5c4[C@H]4C5CCC(C5)[C@@H]34)ccc21 (some centres undefined),0.431 µM,13 µM
Cn1cc(CO)c2c1C(=O)C=C(N1CC1)C2=O,< 0.0187 µM,–
O=C(O)C1C2C=CC(O2)C1C(=O)NCc1ccccn1 (centres undefined),–,> 100 µM
CC1=C(C(=O)Nc2ccccc2)C(c2ccccc2)C(C(=O)Nc2ccccc2)=C(C)N1,–,> 100 µM
O=C(OC(CNc1cc(=O)n(Cc2ccccc2)c(=O)n1Cc1ccccc1)CN1CCCC1)c1ccccc1 (centres undefined),> 100 µM,> 100 µM
Cc1nn(-c2ccccc2)c2nc(N3CCOCC3)nnc12,–,> 100 µM
CCN(CC)CCCC(CNc1ccnc2cc(Cl)ccc12)c1ccc(Cl)cc1 (centres undefined),1.38 µM and 0.212 µM,2.94 µM and 0.466 µM
CCOC(=O)CCCn1c(SC)nc2[nH]cc(-c3ccccc3)c2c1=O,24.2 µM,56.1 µM
CNC(=O)N(C)N=NCCCl,–,> 100 µM
CCOc1ccccc1C=C1c2ccccc2C(=O)c2ccccc21,–,17.4 µM
O=C(CCn1[nH]c(=O)c(Cl)c(Cl)c1=O)NO,–,> 100 µM
CCN1CCN(C(c2ccc(C(F)(F)F)cc2)c2ccc3cccnc3c2O)CC1 (centres undefined),3.35 µM,13.1 µM
CC(C)=CC/C=C(/C)[C@H]1CC[C@]2(C)[C@@H]1CC[C@@H]1[C@@]3(C)CCCNC(C)(C)[C@@H]3CC[C@]12C,1.8 µM,3.53 µM
COc1ccc(C(C)=O)cc1N1C(=O)C2C(C1=O)C1(c3ccccc3)C(=O)C2(c2ccccc2)C(c2ccc(C)cc2)=C1c1ccc(C)cc1 (centres undefined),> 100 µM,> 100 µM
CN(C)c1nc2ccccc2[nH]1,–,> 100 µM
NNC(=S)N/N=C(\CC1OC(=O)c2ccccc21)c1ccccc1O (centres undefined),–,> 100 µM

Compound,GI50,TGI
COC(=O)C1=C(O)c2cc(OC)c(OC)cc2C(c2ccc(OC)c(OC)c2)C1 (centres undefined),–,> 100 µM
COC1(OC)CC2C(=O)N(Cc3ccccc3)C1C(S(=O)(=O)c1ccccc1)C2S(=O)(=O)c1ccccc1 (centres undefined),–,16.9 µM
NC(=Nc1c([N+](=O)[O-])cnc2ccccc12)N1CCOCC1,–,> 100 µM
CCN(CC)c1ccc2c(c1)OC(N)=C(C#N)C2c1cc(OC)c2c(c1)OCO2 (centres undefined),0.0377 µM,0.424 µM
N#CC(=C1C=CC(=NO)C=C1)c1ccccc1,6.33 µM,18.5 µM
CCCCCCCCCCCCCC1=NC(C)(C)CN1C(C)C,1.41 µM,2.71 µM
COC(=O)C(=Cc1cc(OC)ccc1OC)C(=O)OC,–,34.1 µM
CC(C)c1ccccc1NC(=O)CCc1n[nH]c(=S)o1,–,58.3 µM
CC(C)=CCNc1ncnc2c1ncn2C1OC(CO)C(O)C1O (centres undefined),3.96 µM,550 µM
CCCCC(C(=O)C(=O)NC1C2CC3CC(C2)CC1C3)C(=O)C(C)C (centres undefined),–,> 100 µM
COc1ccc(CN2C(=O)/C(=C\C(=O)c3ccc(OCCN4CCCCC4)cc3)c3ccccc32)cc1,1.86 µM,3.97 µM
COC(=O)c1cc2c(s1)C(=O)c1ccccc1-2,–,> 100 µM
CCC(C)n1ncn(-c2ccc(N3CCN(c4ccc(OCC5COC(Cn6cncn6)(c6ccc(Cl)cc6Cl)O5)cc4)CC3)cc2)c1=O (centres undefined),4.12 µM,> 100 µM
CC(C)CCN1c2nc(Nc3cc(F)c(O)c(F)c3)ncc2N(C)C(=O)C1C (centres undefined),14.6 µM,29.3 µM
NC(=O)NC1C(c2ccccc2)=C1c1ccccc1,–,27.9 µM

# Test system: OVCAR-4 ovarian
# Experiment: growth of human tumour cells (NCI), 48 h
Compound,GI50,TGI
Cn1nc(N)c2cc([C@@H]3Nc4ccc5[nH]ncc5c4[C@H]4C5CCC(C5)[C@@H]34)ccc21 (some centres undefined),2.67 µM,> 95 µM
Cn1cc(CO)c2c1C(=O)C=C(N1CC1)C2=O,0.0256 µM,0.0917 µM
O=C(O)C1C2C=CC(O2)C1C(=O)NCc1ccccn1 (centres undefined),–,> 100 µM
CC1=C(C(=O)Nc2ccccc2)C(c2ccccc2)C(C(=O)Nc2ccccc2)=C(C)N1,–,> 100 µM
O=C(OC(CNc1cc(=O)n(Cc2ccccc2)c(=O)n1Cc1ccccc1)CN1CCCC1)c1ccccc1 (centres undefined),> 100 µM,> 100 µM
Cc1nn(-c2ccccc2)c2nc(N3CCOCC3)nnc12,–,> 100 µM
CCN(CC)CCCC(CNc1ccnc2cc(Cl)ccc12)c1ccc(Cl)cc1 (centres undefined),1.07 µM and 1.04 µM,4.28 µM and 3.36 µM
CCOC(=O)CCCn1c(SC)nc2[nH]cc(-c3ccccc3)c2c1=O,31.4 µM,80.8 µM
CNC(=O)N(C)N=NCCCl,–,> 100 µM
CCOc1ccccc1C=C1c2ccccc2C(=O)c2ccccc21,–,> 100 µM
O=C(CCn1[nH]c(=O)c(Cl)c(Cl)c1=O)NO,–,> 100 µM
CCN1CCN(C(c2ccc(C(F)(F)F)cc2)c2ccc3cccnc3c2O)CC1 (centres undefined),2.36 µM,14.3 µM
CC(C)=CC/C=C(/C)[C@H]1CC[C@]2(C)[C@@H]1CC[C@@H]1[C@@]3(C)CCCNC(C)(C)[C@@H]3CC[C@]12C,3.33 µM,11.4 µM
COc1ccc(C(C)=O)cc1N1C(=O)C2C(C1=O)C1(c3ccccc3)C(=O)C2(c2ccccc2)C(c2ccc(C)cc2)=C1c1ccc(C)cc1 (centres undefined),> 100 µM,> 100 µM
CN(C)c1nc2ccccc2[nH]1,–,> 100 µM
